The structures appear in SMILES notation.

In this test the test system is viruses. The test can be described thus: Virus inactivation by fabric with attached dye under illumination. The note with it: for virus inactivation (in words): low light illumination levels, FIG. 4. In kind it is cell-based.

For the molecule `Cc1cc2cc3cc(C)c(N)cc3nc2cc1N.Cl` [acridine yellow G], the “virus inactivation (in words)” value is on record as “unexpected efficiency in virus inactivation”. Besides, the viruses inactivated result (exposure to light as low as 500 Lux) is on record as “at least 99%”. In addition, where the note is “listed as Acridine yellow G”, the “virus inactivation (in words)” value is “very high virus inactivation”.
